Assay results from patent publication US8952024B2, “Herbicidal pyrimidone derivatives” (E I du Pont de Nemours and Company, priority 2009, dated 2015).

Tests used:
Test in all cases: Test B pre-/postemergence plant response
Format in all cases: in vivo
corn (Zea mays) = tested on: corn (Zea mays)
Outline: (§1)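 Greenhouse herbicide screen. Pre- and postemergence (1- to 4-leaf) spray of compound in solvent/surfactant mixture; loam–sand soil for pre, peat/vermiculite medium for post. Visual control rating 0–100 at 13 to 15 days after treatment.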

[1] = tested on: velvetleaf (Abutilon theophrasti)
Outline: as §1

[2] = tested on: cocklebur (Xanthium strumarium)
Outline: as §1

kochia (Kochia scoparia) = tested on: kochia (Kochia scoparia)
Outline: as §1

[3] = tested on: blackgrass (Alopecurus myosuroides)
Outline: as §1

[4] = tested on: ragweed (common ragweed, Ambrosia elatior)
Outline: as §1

soybean (Glycine max) = tested on: soybean (Glycine max)
Outline: as §1

[5] = tested on: bermudagrass (Cynodon dactylon)
Outline: as §1

[6] = tested on: yellow nutsedge (Cyperus esculentus)
Outline: as §1

[7] = tested on: pigweed (Amaranthus retroflexus)
Outline: as §1

[8] = tested on: downy bromegrass (Bromus tectorum)
Outline: as §1

[9] = tested on: large crabgrass (Digitaria sanguinalis)
Outline: as §1

wild oat (Avena fatua) = tested on: wild oat (Avena fatua)
Outline: as §1

[10] = tested on: green foxtail (Setaria viridis)
Outline: as §1

[11] = tested on: Italian ryegrass (Lolium multiflorum)
Outline: as §1

[12] = tested on: Surinam grass (Brachiaria decumbens)
Outline: as §1

[13] = tested on: lambsquarters (Chenopodium album)
Outline: as §1

[14] = 31 g ai/ha, postemergence, scale 0 to 100, 0 is no effect, 100 is complete control
[15] = 62 g ai/ha, postemergence, 0 is no effect, 100 is complete control, 13 to 15 days
[16] = Postemergence, 125 g ai/ha, visual rating after 13 to 15 days, scale 0 (no effect) to 100 (complete control)
[17] = Postemergence, 250 g ai/ha, scale 0 to 100 (0 no effect, 100 complete control)

O=C1CCCC(O)=C1C(=O)c1cnc(-c2ccc(Br)cc2)n(-c2ccccc2)c1=O [Compound 70]
85: Bermudagrass plant response rating (0 to 100 scale) [5, 15] | Plant response rating, Pigweed [7, 14] | Foxtail, Green plant response rating (0 to 100 scale) [10, 15] | Plant response rating, Lambsquarters [13, 14]
40: Plant response rating, Cocklebur [2, 16] | Plant response rating, Cocklebur [2, 17] | Plant response rating, Nutsedge, Yellow [6, 16]
50: Plant response rating, Blackgrass [3, 17] | Bromegrass, Downy plant response rating (0 to 100 scale) [8, 15] | Plant response rating, Ryegrass, Italian [11, 16]
98: Plant response rating, Kochia (kochia (Kochia scoparia); [17]) | Plant response rating, Soybean (soybean (Glycine max); [17]) | Plant response rating, Bermudagrass [5, 17] | Pigweed plant response rating (0 to 100 scale) [7, 15] | Plant response rating, Pigweed [7, 16] | Plant response rating, Foxtail, Green [10, 16] | Plant response rating, Foxtail, Green [10, 17] | Lambsquarters plant response rating (0 to 100 scale) [13, 15]
70: Ragweed plant response rating (0 to 100 scale) [4, 15] | Plant response rating, Bromegrass, Downy [8, 16] | Plant response rating, Bromegrass, Downy [8, 17] | Oat, Wild plant response rating (0 to 100 scale) (wild oat (Avena fatua); [15]) | Plant response rating, Ryegrass, Italian [11, 17]
80: Velvetleaf plant response rating (0 to 100 scale) [1, 15] | Plant response rating, Ragweed [4, 17] | Plant response rating, Crabgrass, Large [9, 14] | Plant response rating, Foxtail, Green [10, 14]
90: Crabgrass, Large plant response rating (0 to 100 scale) [9, 15] | Plant response rating, Oat, Wild (wild oat (Avena fatua); [16])
100: Plant response rating, Velvetleaf [1, 16] | Plant response rating, Velvetleaf [1, 17] | Plant response rating, Pigweed [7, 17] | Plant response rating, Crabgrass, Large [9, 17] | Plant response rating, Surinam Grass [12, 17] | Plant response rating, Lambsquarters [13, 16] | Plant response rating, Lambsquarters [13, 17]
55: Plant response rating, Oat, Wild (wild oat (Avena fatua); [14])
65: Plant response rating, Kochia (kochia (Kochia scoparia); [14]) | Kochia plant response rating (0 to 100 scale) (kochia (Kochia scoparia); [15]) | Plant response rating, Surinam Grass [12, 14] | Surinam Grass plant response rating (0 to 100 scale) [12, 15]
35: Corn plant response rating (0 to 100 scale) (corn (Zea mays); [15]) | Blackgrass plant response rating (0 to 100 scale) [3, 15] | Plant response rating, Blackgrass [3, 16]
15: Plant response rating, Corn (corn (Zea mays); [14]) | Nutsedge, Yellow plant response rating (0 to 100 scale) [6, 15]
95: Plant response rating, Soybean (soybean (Glycine max); [16]) | Plant response rating, Bermudagrass [5, 16] | Plant response rating, Crabgrass, Large [9, 16] | Plant response rating, Oat, Wild (wild oat (Avena fatua); [17]) | Plant response rating, Surinam Grass [12, 16]
0: Plant response rating, Cocklebur [2, 14] | Cocklebur plant response rating (0 to 100 scale) [2, 15]
60: Plant response rating, Corn (corn (Zea mays); [16]) | Plant response rating, Ragweed [4, 14] | Plant response rating, Nutsedge, Yellow [6, 17]
75: Plant response rating, Corn (corn (Zea mays); [17]) | Plant response rating, Velvetleaf [1, 14] | Plant response rating, Kochia (kochia (Kochia scoparia); [16]) | Plant response rating, Ragweed [4, 16] | Plant response rating, Soybean (soybean (Glycine max); [14]) | Soybean plant response rating (0 to 100 scale) (soybean (Glycine max); [15]) | Plant response rating, Bermudagrass [5, 14]
10: Plant response rating, Nutsedge, Yellow [6, 14] | Plant response rating, Bromegrass, Downy [8, 14] | Plant response rating, Ryegrass, Italian [11, 14] | Ryegrass, Italian plant response rating (0 to 100 scale) [11, 15]
30: Plant response rating, Blackgrass [3, 14]
